Results on one compound are retold here after patent US20140271573A1, “PHARMACO-CELLULAR THERAPEUTIC METHOD FOR THE TREATMENT OF MUSCULAR DYSTROPHIES” (PONTIFICIA UNIVERSIDAD CATÓLICA DE CHILE, priority 2013, published 2014).

The subject of this experiment is mdx mice. The experiment can be described thus: Survival and proliferation of grafted EGFP satellite cells in mdx mice, EGFP transgene real time qPCR. Type of experiment: in vivo, mouse. The source says:
Alternatively, it might be possibly that the host muscles have a diminished density of satellite cells, thus, the grafted cells would have no competition for the regenerating muscle fibers or instead the transplanted cells presents a better proliferation performance in the andrographolide treated mice muscles. The first possibility seems to be plausible considering the fibroblast migration data (FIG. 5), while the second hypothesis was excluded since no changes in the number of satellite cells present on isolated EDL myofibers obtained from the same transplanted mice in FIG. 5A were observed, with a mean of 12.5 satellite cells per EDL myofiber, as shown in the FIG. 5B. To test the last possibility, whether grafted cells have improved proliferation rate or survival, we purified satellite cells from the EGFP-transgenic C57BL/6 mice that constitutively expressed the EGFP transgene under the control of the chicken b-actin gene (C57BL/6-Tg(ACTbEGFP)10sba; Act-EGFP). […] The EGFP transgene present in the grafted muscles was detected by real time qPCR in parallel with the mouse b-actin as a housekeeping gene. Since every grafted cell carries only one copy of the EGFP gene (the homozygous EGFP mice die within 2 weeks after birth) the EGFP gene detection constitutes a specific, rapid, and objective quantitation of the grafted cells.

With `C=C1CC[C@@H]2[C@](C)(CO)[C@H](O)CC[C@@]2(C)[C@@H]1C/C=C1/C(=O)OC[C@H]1O` [andrographolide], the “percentage of grafted cells compared to the fibrotic untreated mice” value (15 days post transplantation, EGFP transgene qPCR) is on record as 3 times. For the same compound, under “EGFP satellite cells grafted in mdx mice, in both cases (treated and untreated)”, the “transplanted cells that die during the first 2 days” value was 60%.
